What all share (format): cell-based
Test [1] has as its system Staphylococcus aureus ATCC29213 rpoB^D417Y. Description: microbe, parasite or virus in culture.
The test system of test [2] is Streptococcus pneumoniae ATCC6303. Description: MIC, microbroth dilution (NCCLS). Background: Dilution methods test growth across graded concentrations, often in twofold steps.
Test [3] deals with Staphylococcus aureus MT1222 gyrA^A116E grlB^S80F. The experiment in a line: microbe, parasite or virus in culture.
The subject of test [4] is Mycobacterium smegmatis ATCC700084. The experiment in a line: MIC, microbroth dilution (NCCLS).
For test [5], the system named is Staphylococcus aureus ATCC29213 rpoB^H418Y. The experiment in a line: microbe, parasite or virus in culture.
In test [6] the test system is H. influenzae ATCC 10211 and E. coli ATCC 25922. Description: MIC, Gram-negative bacteria. Conditions: text summary over two Gram-negative strains.
Test [7] concerns Streptococcus pyogenes ATCC19615. The experiment in a line: MIC, microbroth dilution (NCCLS).
The subject of test [8] is Staphylococcus aureus ATCC29213. The experiment in a line: MIC, microbroth dilution (NCCLS).
Test [9] deals with Haemophilus influenzae ATCC10211. Description: MIC, microbroth dilution (NCCLS).
The test system of test [10] is Staphylococcus epidermidis ATCC12228. The experiment in a line: MIC, microbroth dilution (NCCLS).
Test [11] deals with Enterococcus faecalis ATCC29212. The experiment in a line: MIC, microbroth dilution (NCCLS).
A short description of test [12]: MIC, panel of rifampin-susceptible Gram-positive strains. Conditions: text summary over five rifampin-susceptible Gram-positive strains.
Test [13] concerns Escherichia coli ATCC25922. Description: MIC, microbroth dilution (NCCLS).
The mark [14] stands for this setting: Staphylococcus aureus, ATCC29213.
Setting [15] is: rifR strain, Cation-Adjusted Mueller-Hinton Broth, 37° C.
[16] abbreviates: rifS strain, THY Broth with 1 mg/mL catalase, 5% CO2, 37° C., read-out: MIC.
Setting [17] is: cipR strain, Cation-Adjusted Mueller-Hinton Broth, 37° C., read-out: MIC.
[18] abbreviates: Staphylococcus aureus, ATCC29213, rifR strain, Cation-Adjusted Mueller-Hinton Broth, 37° C., read-out: MIC.
[19] abbreviates: rifS strain, THY Broth, 37° C., read-out: MIC.
The mark [20] stands for this setting: rifS strain, Cation-Adjusted Mueller-Hinton Broth, 37° C., read-out: MIC.
Setting [21] is: rifS strain, BHI Broth with NAD and hematin, 37° C., read-out: MIC.

Molecules are shown by their SMILES. Values after ≈ are worked out from the molar mass of the structure shown. Read-outs that look alike come from different tables or passages of the source. A value given as a limit tells only on which side of the number the result lay.

`CO[C@H]1/C=C/O[C@@]2(C)Oc3c(C)c(O)c4c(O)c(c(/C=N/N5CCN(C)CC5)c(O)c4c3C2=O)NC(=O)/C(C)=C\C=C\[C@H](C)[C@H](O)[C@@H](C)[C@@H](O)[C@@H](C)[C@H](OC(C)=O)[C@@H]1C` [rifampin, reference compound]: the MIC in [1] (setting [14]) is more than 64 µg/mL; in [1] (setting [15]), more than 64 µg/mL; in test [2] it was 0.061 µg/mL (≈ 0.0741 µM); in test [3], 0.004 µg/mL (≈ 0.00486 µM); in test [4] (Mycolicibacterium smegmatis, ATCC700084), 64 µg/mL (≈ 77.8 µM); in [4] (rifS strain, Middlebrook Broth plus ADC Enrichment, 37° C.), 64 µg/mL. Besides, the MIC was 7.8 µg/mL (≈ 9.48 µM) in [5] (setting [14]); 7.8 µg/mL (≈ 9.48 µM) in [5] (setting [15]); 0.24 to 16 µg/mL (≈ 0.292 to 19.4 µM) in test [6]; 0.013 µg/mL (≈ 0.0158 µM) in test [7]; 0.008 µg/mL (≈ 0.00972 µM) in [8]; 0.24 µg/mL (≈ 0.292 µM) in [9]. Further, the MIC in [10] was 0.03 µg/mL (≈ 0.0365 µM); in [11], 0.98 µg/mL (≈ 1.19 µM); in [12], 0.008 to 1 µg/mL (≈ 0.00972 to 1.22 µM); in [13], 16 µg/mL (≈ 19.4 µM).

Regarding `CO[C@H]1/C=C/O[C@@]2(C)Oc3c(C)c(O)c4c(O)c(c(/C=N/N5CCN(C(=O)C6CCN(c7nc8c(cc7F)c(=O)c(C(=O)O)cn8-c7ccc(F)cc7F)C6)CC5)c(O)c4c3C2=O)NC(=O)/C(C)=C\C=C\[C@H](C)[C@H](O)[C@@H](C)[C@@H](O)[C@@H](C)[C@H](OC(C)=O)[C@@H]1C` (mixture of isomers) [Example 36, (R/S)-3-{4-[1-(3-Carboxy-1-(2,4-difluoro-phenyl)-6-fluoro-4-oxo-1,4-dihydro-[1,8]naphthyridine-7-yl)-pyrrolidin-3-yl-carbonyl]-piperazin-1-yl-aminomethylenyl}-rifamycin SV], the MIC lay in the range of 0.008 to 0.06 µg/mL (≈ 0.00653 to 0.049 µM) in [2] (setting [16]); 0.008 to 0.125 µg/mL (≈ 0.00653 to 0.102 µM) in [3] (setting [17]); 0.06 to 16 µg/mL (≈ 0.049 to 13.1 µM) in test [5] (setting [18]); 0.008 to 0.03 µg/mL (≈ 0.00653 to 0.0245 µM) in [7] (setting [19]); 0.008 to 1 µg/mL (≈ 0.00653 to 0.817 µM) in test [8] (setting [20]); 0.125 to 4 µg/mL (≈ 0.102 to 3.27 µM) in test [9] (setting [21]). The MIC in test [10] (setting [20]) is 0.008 to 0.1 µg/mL (≈ 0.00653 to 0.0817 µM).

With `CO[C@H]1/C=C/O[C@@]2(C)Oc3c(C)c(O)c4c(c3C2=O)C(=O)C(/C=N/N2CCN(c3cc5c(cc3F)c(=O)c(C(=O)O)cn5C3CC3)CC2)=C(NC(=O)/C(C)=C\C=C\[C@H](C)[C@H](O)[C@@H](C)[C@@H](O)[C@@H](C)[C@H](OC(C)=O)[C@@H]1C)C4=O` [Example 5, 3-[4-(3-Carboxy-1-cyclopropl-6-fluoro-4-oxo-1,4-dihydroquinolin-7-yl)-piperazin-1-yl-aminomethylenyl]rifamycin S], the MIC in test [2] (setting [16]) lay within 0.008 to 0.06 µg/mL (≈ 0.0076 to 0.057 µM); in test [3] (setting [17]), 0.008 to 0.125 µg/mL (≈ 0.0076 to 0.119 µM); in test [5] (setting [18]), 0.06 to 16 µg/mL (≈ 0.057 to 15.2 µM); in test [7] (setting [19]) it was 0.008 to 0.03 µg/mL (≈ 0.0076 to 0.0285 µM); in [8] (setting [20]), 0.008 to 1 µg/mL (≈ 0.0076 to 0.95 µM); in [9] (setting [21]) it was 0.125 to 4 µg/mL (≈ 0.119 to 3.8 µM). Moreover, the MIC in [10] (setting [20]) lay within 0.008 to 0.1 µg/mL (≈ 0.0076 to 0.095 µM).

For `COc1c(N2CCC(N3CCN(/N=C/c4c5c(O)c6c(O)c(C)c7c(c6c4O)C(=O)[C@@](C)(O/C=C/[C@H](OC)[C@@H](C)[C@@H](OC(C)=O)[C@H](C)[C@H](O)[C@H](C)[C@@H](O)[C@@H](C)/C=C/C=C(/C)C(=O)N5)O7)CC3)C2)c(F)cc2c(=O)c(C(=O)O)cn(C3CC3)c12` (mixture of isomers) [Example 33, (R/S)-3-{4-[1-(3-Carboxy-1-cyclopropyl-6-fluoro-8-methoxyoxo-1,4-dihydroquinolin-7-yl)-pyrrolidin-3-yl]-piperazin-1-yl-aminomethylenyl}-rifamycin SV], the MIC in test [2] (setting [16]) was in the range of 0.008 to 0.06 µg/mL (≈ 0.00694 to 0.052 µM); in [3] (setting [17]), 0.008 to 0.125 µg/mL (≈ 0.00694 to 0.108 µM); in test [5] (setting [18]), 0.06 to 16 µg/mL (≈ 0.052 to 13.9 µM); in test [7] (setting [19]) it was 0.008 to 0.03 µg/mL (≈ 0.00694 to 0.026 µM); in test [8] (setting [20]) it was 0.008 to 1 µg/mL (≈ 0.00694 to 0.867 µM); in test [9] (setting [21]) it was 0.125 to 4 µg/mL (≈ 0.108 to 3.47 µM). Moreover, the MIC in [10] (setting [20]) is 0.008 to 0.1 µg/mL (≈ 0.00694 to 0.0867 µM).

For the compound `COc1c(N2CCC(NC3CCN(/N=C/c4c5c(O)c6c(O)c(C)c7c(c6c4O)C(=O)[C@@](C)(O/C=C/[C@H](OC)[C@@H](C)[C@@H](OC(C)=O)[C@H](C)[C@H](O)[C@H](C)[C@@H](O)[C@@H](C)/C=C/C=C(/C)C(=O)N5)O7)CC3)C2)c(F)cc2c(=O)c(C(=O)O)cn(C3CC3)c12` (mixture of isomers) [Example 26, (R/S)-3-{4-[1-(3-Carboxy-1-cyclopropyl-6-fluoro-8-methoxy-4-oxo-1,4-dihydroquinolin-7-yl)-pyrrolidin-3-ylamino]-piperidin-1-yl-aminomethylenyl}-rifamycin SV], the MIC in test [2] (setting [16]) was in the range of 0.008 to 0.06 µg/mL (≈ 0.00685 to 0.0514 µM); in test [3] (setting [17]), 0.008 to 0.125 µg/mL (≈ 0.00685 to 0.107 µM); in [5] (setting [18]), 0.06 to 16 µg/mL (≈ 0.0514 to 13.7 µM); in [7] (setting [19]), 0.008 to 0.03 µg/mL (≈ 0.00685 to 0.0257 µM); in test [8] (setting [20]), 0.008 to 1 µg/mL (≈ 0.00685 to 0.857 µM); in test [9] (setting [21]), 0.125 to 4 µg/mL (≈ 0.107 to 3.43 µM). Besides, the MIC in test [10] (setting [20]) is 0.008 to 0.1 µg/mL (≈ 0.00685 to 0.0857 µM).

Take `CCn1cc(C(=O)O)c(=O)c2cc(F)c(N3CCN(/N=C/c4c5c(O)c6c(O)c(C)c7c(c6c4O)C(=O)[C@@](C)(O/C=C/[C@H](OC)[C@@H](C)[C@@H](OC(C)=O)[C@H](C)[C@H](O)[C@H](C)[C@@H](O)[C@@H](C)/C=C/C=C(/C)C(=O)N5)O7)CC3)nc21` [Example 19, 3-[4-(3-Carboxy-1-ethyl-6-fluoro-4-oxo-1,4-dihydro-[1,8]naphthyridine-7-yl)-piperazin-1-yl-aminomethylenyl]-rifamycin SV]: the MIC lay in the range of 0.008 to 0.06 µg/mL (≈ 0.00767 to 0.0575 µM) in [2] (setting [16]); 0.008 to 0.125 µg/mL (≈ 0.00767 to 0.12 µM) in [3] (setting [17]); 0.06 to 16 µg/mL (≈ 0.0575 to 15.3 µM) in test [5] (setting [18]); 0.008 to 0.03 µg/mL (≈ 0.00767 to 0.0288 µM) in test [7] (setting [19]); 0.008 to 1 µg/mL (≈ 0.00767 to 0.959 µM) in test [8] (setting [20]); 0.125 to 4 µg/mL (≈ 0.12 to 3.83 µM) in test [9] (setting [21]). Also, the MIC in [10] (setting [20]) fell in the range of 0.008 to 0.1 µg/mL (≈ 0.00767 to 0.0959 µM).

`COc1c(N2CCN(/N=C/c3c4c(O)c5c(O)c(C)c6c(c5c3O)C(=O)[C@@](C)(O/C=C/[C@H](OC)[C@@H](C)[C@@H](OC(C)=O)[C@H](C)[C@H](O)[C@H](C)[C@@H](O)[C@@H](C)/C=C/C=C(/C)C(=O)N4)O6)C(C)C2)c(F)cc2c(=O)c(C(=O)O)cn(C3CC3)c12` (mixture of isomers) [Example 7, (R/S)-3-[4-(3-Carboxy-1-cyclopropyl-6-fluoro-8-methoxy-4-oxo-1,4-dihydroquinolin-7-yl)-2-methyl-piperazin-1-yl-aminomethylenyl]rifamycin SV]: the MIC in test [2] (setting [16]) fell in the range of 0.008 to 0.06 µg/mL (≈ 0.00728 to 0.0546 µM); in test [3] (setting [17]), 0.008 to 0.125 µg/mL (≈ 0.00728 to 0.114 µM); in test [5] (setting [18]), 0.06 to 16 µg/mL (≈ 0.0546 to 14.6 µM); in test [7] (setting [19]), 0.008 to 0.03 µg/mL (≈ 0.00728 to 0.0273 µM); in test [8] (setting [20]), 0.008 to 1 µg/mL (≈ 0.00728 to 0.911 µM); in [9] (setting [21]), 0.125 to 4 µg/mL (≈ 0.114 to 3.64 µM). The MIC in test [10] (setting [20]) is 0.008 to 0.1 µg/mL (≈ 0.00728 to 0.0911 µM).

Regarding `CO[C@H]1/C=C/O[C@@]2(C)Oc3c(C)c(O)c4c(c3C2=O)C(=O)C(/C=N/N2CCN(c3nc5c(cc3F)c(=O)c(C(=O)O)cn5-c3ccc(F)cc3F)CC2)=C(NC(=O)/C(C)=C\C=C\[C@H](C)[C@H](O)[C@@H](C)[C@@H](O)[C@@H](C)[C@H](OC(C)=O)[C@@H]1C)C4=O` [Example 10, 3-[4-[3-Carboxy-1-(2,4-difluoro-phenyl)-6-fluoro-4-oxo-1,4-dihydro-[1,8]naphthyridine-7-yl]-piperazin-1-ylaminomethylenyl]rifamycin S], the MIC in test [2] (setting [16]) was in the range of 0.008 to 0.06 µg/mL (≈ 0.00711 to 0.0533 µM); in test [3] (setting [17]), 0.008 to 0.125 µg/mL (≈ 0.00711 to 0.111 µM); in test [5] (setting [18]) it was 0.06 to 16 µg/mL (≈ 0.0533 to 14.2 µM); in [7] (setting [19]) it was 0.008 to 0.03 µg/mL (≈ 0.00711 to 0.0267 µM); in test [8] (setting [20]), 0.008 to 1 µg/mL (≈ 0.00711 to 0.889 µM); in test [9] (setting [21]), 0.125 to 4 µg/mL (≈ 0.111 to 3.56 µM). For the same compound, the MIC in [10] (setting [20]) lay within 0.008 to 0.1 µg/mL (≈ 0.00711 to 0.0889 µM).

Source of the values: patent US7238694B2, “Rifamycin imino derivatives effective against drug-resistant microbes” (Cumbre Pharmaceuticals, Inc., priority 2004, dated 2007).
